We go through 15 compounds from US6251854A, “N-methyl-d-aspartate receptor channel blockers and method for identifying such” (priority 1999, dated 2001).

For assay [1], the target named is T1, human NR1-NR2A NMDA receptor subunits (Homo sapiens, UniProt Q05586+Q12879).
T1 construct: expressed in transfected cells; host or cells: Xenopus laevis oocytes
As to the kind of experiment: amphibian oocyte current blockade assay (agonist-evoked currents). Format: cell-based. The settings on record: for potency rank as NMDA blocker (FIG. 1): unacetylated peptides; for selectivity for NMDA receptor channels: versus non-NMDA glutamate receptors. The method, then:
Briefly, in the amphibian oocyte current blockade assay, human NMDA receptors are expressed in the oocytes. The receptors are stimulated in the cells by NMDA agonists. Agonist-induced current is the control against which current blockade levels achieved by incubating the oocytes with candidate NMDA blockers are measured.
(A) NMDA specific receptor channel blocking peptides ("NMDA blockers") were identified by screening synthetic combinatorial libraries (SCL) (see e.g., the library and peptide synthesis methods described in Ostresh, et al., Meth Enzymol (1996) 267:220-34, incorporated herein by reference) and assaying for blockade of agonist-evoked currents by the human NR1-NR2A NMDA receptor subunits expressed in amphibian (Xenopus laevis) oocytes (see, for example, the assay method described in Ferrer-Monteil and Montal, METHODS:A Companion to Methods in Enzymology (1994) 6:60-68, incorporated herein by reference).
(D) The compounds prepared in part (B) above were examined for activity against human brain NMDA receptors (composed of NR1 and NR2A subunits) expressed in oocytes. Ionic currents were activated by 200 μM L-glutamate (L-GIu) 20 μM glycine (Gly), at a holding potential Vh =[…]. Ba^2+ /flufenamic Ringer solution was supplemented with agonist and compounds of the invention, and blockade activity determined for each compound.
An example of how the assay method is performed follows, with reference to FIG. 5.

The test system of assay [2] is cultured hippocampal neurons. In words: hippocampal neuronal cell death model (NMDA excitotoxicity). In kind it is cell-based, mammalian. Conditions: neurons exposed to 200 μM NMDA for 20 minutes (FIG. 3). The source says: In addition to approved clinical trials of the inventive compounds in humans, their efficacy can be confirmed in various known animal models for cerebral impairments associated with NMDA receptor pathology, such as the rat ischemia model (e.g., Seif, et al., Eur J Pharmacol (1990) 185:19-24 and Block and Schwara, Neurosci Lett (1996) 208:41-44). Useful in vitro models for testing neuroprotective drug effects in cerebral neuronal cells are also known and include the chick embryo hypoxia model (e.g., Krieglstein, et al., J Pharmacol Meth (1988) 20:39-46) and the mammalian hippocampal neuronal system in which the inventive compounds were tested (e.g., Schinder, et al., supra). These references are each incorporated by reference to illustrate knowledge in the art concerning models of cerebral dysfunction. Those of ordinary skill in the art will be familiar with, or can readily ascertain, other suitable models for use in testing the compounds of the invention.
Testing of the NMDA blockers of the invention in a hippocampal cell model for neurodysfunction (using the method described in Schinder, et al., J Neurosci (1996) 16:6125-33, incorporated herein by reference) yielded surprising results. Specifically, the NMDA blockers of the invention exert a substantial protective effect against cell death induced by exposure of cultured hippocampal neurons to glutamate agonists in the described model of neuronal cell death due to NMDA receptor dysfunction. In this model, neurons exposed to 200 μM NMDA for 20 minutes display extensive death that can be prevented by open channel blockers such as MK-801 or memantine (FIG. 3). This in vitro paradigm of excitotoxicity provides an assay of neuroprotection (see e.g., Schinder et al., supra and Deshpande, et al., Arch Toxicol, 69:384-390).

Assay [3] has as its target T2, AMPA-receptor subunit GluR1 (Homo sapiens, UniProt P42261).
T2 construct: expressed in transfected cells; host or cells: amphibian oocytes
As to the kind of experiment: current blockade at non-NMDA glutamate receptor channels in amphibian oocytes. In kind it is cell-based. The source says:
FIG. 1 is a bar graph which depicts the extent of current blockade achieved by various peptides of the invention acting on NMDA receptors ("NMDAR", solid bars) and glutamate receptors of the AMPA-receptor subunit GluR1 type ("GluR1", shaded bars) in amphibian oocytes. Each tested peptide is identified by sequence and test number along the bottom axis of the graph. Current blockade is expressed as a function of the extent of current reduction as compared to current produced in control amphibian oocytes.
(B) To examine the specificity of the blockade activity, the activity of the peptides on glutamate receptor channels of the non-NMDA subtype, specifically, the AMPA-receptor subunit GluR1, was tested.

Where [4] appears, read: Table 2, bicyclic compounds, 200 μM L-glutamate 20 μM glycine, Vh = −80 mV, blocked response 1-(Icmpd/Iagonist), read-out: IC50 (μM) Inhibitory Concentrations.

Entries after “also recorded” stand apart in the source; their conditions may differ. Counter-ions that a name gives are not always drawn. Like-named read-outs stand apart in the source and are kept apart here. Non-standard residues stand in square brackets, D forms with d. Residues, ends and D or L forms follow the SMILES beside them.

T2 sequence (P42261 19-906): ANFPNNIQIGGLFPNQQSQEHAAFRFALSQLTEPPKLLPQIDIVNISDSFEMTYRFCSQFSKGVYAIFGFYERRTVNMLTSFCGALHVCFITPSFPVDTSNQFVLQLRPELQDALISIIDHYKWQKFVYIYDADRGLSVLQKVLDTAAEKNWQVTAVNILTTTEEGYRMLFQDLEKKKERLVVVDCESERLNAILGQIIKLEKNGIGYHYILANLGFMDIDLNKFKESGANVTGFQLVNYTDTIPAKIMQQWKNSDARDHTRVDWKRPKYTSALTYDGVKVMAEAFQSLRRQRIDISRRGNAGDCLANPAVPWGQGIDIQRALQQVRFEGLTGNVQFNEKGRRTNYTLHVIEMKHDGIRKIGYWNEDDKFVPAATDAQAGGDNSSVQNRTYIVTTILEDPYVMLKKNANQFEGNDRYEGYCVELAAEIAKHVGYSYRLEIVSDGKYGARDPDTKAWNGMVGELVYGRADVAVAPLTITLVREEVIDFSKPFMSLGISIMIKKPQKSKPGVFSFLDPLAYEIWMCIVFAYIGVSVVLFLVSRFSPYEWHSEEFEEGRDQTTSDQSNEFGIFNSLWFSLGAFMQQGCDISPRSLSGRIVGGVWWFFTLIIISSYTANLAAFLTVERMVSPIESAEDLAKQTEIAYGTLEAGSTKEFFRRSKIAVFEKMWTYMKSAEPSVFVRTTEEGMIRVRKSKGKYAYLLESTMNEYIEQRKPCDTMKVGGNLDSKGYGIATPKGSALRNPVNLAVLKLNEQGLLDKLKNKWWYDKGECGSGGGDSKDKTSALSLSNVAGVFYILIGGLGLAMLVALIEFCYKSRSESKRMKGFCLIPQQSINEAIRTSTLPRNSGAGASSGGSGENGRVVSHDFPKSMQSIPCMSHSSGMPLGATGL
T1 sequence (Q12879 23-1464, other chains not shown): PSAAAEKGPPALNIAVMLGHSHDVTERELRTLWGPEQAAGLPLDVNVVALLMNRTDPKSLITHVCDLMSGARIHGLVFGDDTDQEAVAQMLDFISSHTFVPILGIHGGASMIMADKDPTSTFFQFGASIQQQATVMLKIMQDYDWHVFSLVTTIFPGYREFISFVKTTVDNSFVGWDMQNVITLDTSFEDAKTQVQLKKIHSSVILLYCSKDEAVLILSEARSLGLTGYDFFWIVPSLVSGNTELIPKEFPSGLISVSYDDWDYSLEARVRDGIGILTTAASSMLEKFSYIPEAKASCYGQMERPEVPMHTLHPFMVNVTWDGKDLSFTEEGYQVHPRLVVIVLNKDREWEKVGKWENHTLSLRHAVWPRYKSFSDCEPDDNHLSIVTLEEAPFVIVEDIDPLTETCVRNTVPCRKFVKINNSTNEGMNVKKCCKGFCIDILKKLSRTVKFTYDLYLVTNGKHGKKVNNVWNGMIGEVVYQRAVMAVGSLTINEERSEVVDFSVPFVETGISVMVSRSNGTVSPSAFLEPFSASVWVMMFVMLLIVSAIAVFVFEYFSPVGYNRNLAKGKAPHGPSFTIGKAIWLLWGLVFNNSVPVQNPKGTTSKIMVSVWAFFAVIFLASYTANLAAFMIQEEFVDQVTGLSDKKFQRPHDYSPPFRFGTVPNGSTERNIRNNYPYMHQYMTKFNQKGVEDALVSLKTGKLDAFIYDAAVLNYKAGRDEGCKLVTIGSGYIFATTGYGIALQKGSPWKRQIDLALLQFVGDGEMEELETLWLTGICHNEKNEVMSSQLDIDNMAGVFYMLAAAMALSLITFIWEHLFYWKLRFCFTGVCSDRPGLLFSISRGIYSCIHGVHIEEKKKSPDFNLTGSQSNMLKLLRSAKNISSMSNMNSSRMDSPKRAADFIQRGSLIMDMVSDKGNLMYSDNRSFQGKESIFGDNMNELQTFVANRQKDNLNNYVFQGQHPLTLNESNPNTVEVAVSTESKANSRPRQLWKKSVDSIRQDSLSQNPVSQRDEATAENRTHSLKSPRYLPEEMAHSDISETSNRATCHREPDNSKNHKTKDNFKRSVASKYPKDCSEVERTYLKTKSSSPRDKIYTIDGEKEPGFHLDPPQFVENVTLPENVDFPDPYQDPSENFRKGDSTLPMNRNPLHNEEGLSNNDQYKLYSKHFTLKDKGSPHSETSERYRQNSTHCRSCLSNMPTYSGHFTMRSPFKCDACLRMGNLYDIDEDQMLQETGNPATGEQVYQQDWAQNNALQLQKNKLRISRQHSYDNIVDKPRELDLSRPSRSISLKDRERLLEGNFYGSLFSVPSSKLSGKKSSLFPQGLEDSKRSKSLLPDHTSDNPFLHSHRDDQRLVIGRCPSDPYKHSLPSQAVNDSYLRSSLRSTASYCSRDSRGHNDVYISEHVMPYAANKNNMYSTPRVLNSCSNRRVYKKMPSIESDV

In the case of “2H-3-(3-guanidinopropyl)-7-(3-guanidinopropyl)-8-(3-methylbutyl)diazolidine[1,2-b]dihydroimidazole”, the IC50 in assay [1] (setting [4]) turned out to be 4.2 µM. With “2H-3-(3-guanidinopropyl)-7-(but-2-yl)-8-(3-methyl-butyl)diazolidine[1,2-b]dihydroimidazole”, the IC50 in assay [1] (setting [4]) came out at 11.8 µM. Turning to “2H-3-(4-fluorobenzyl)-7-(3-guanidinopropyl)-8-(3-methylbutyl)diazolidine[1,2-b]dihydroimidazole”, in assay [1] (setting [4]), the IC50 amounted to 6.1 µM. For the compound “2H-3-(4-fluorobenzyl)-7-(but-2-yl)-8-(3-methyl-butyl)diazolidine[1,2-b]dihydroimidazole”, the IC50 in assay [1] (setting [4]) was found to be 1.2 µM. For the compound “2H-3-(4-fluorobenzyl)-7-(t-butyl)-8-(3-methyl-butyl)diazolidine[1,2-b]dihydroimidazole”, the IC50 in assay [1] (setting [4]) came to 2.2 µM. Regarding `C[C@]12N[C@H](Cc3ccccc31)c1ccccc12` [MK-801, reference compound], the “protection of neurons from excitotoxic cell death” value (shortened to “protection of neurons”) in assay [2] is “prevented”.

`N=C(N)NCCC[C@H](NC(=O)[C@H](CCCNC(=N)N)NC(=O)[C@H](CCCNC(=N)N)NC(=O)[C@H](CCCNC(=N)N)NC(=O)[C@H](CCCNC(=N)N)NC(=O)[C@@H](N)CCCNC(=N)N)C(N)=O` [RRRRRR] registered an IC50 in assay [1] of 0.5 ± 0.1 µM. Moreover, in assay [2], the “protection of neurons” value is on record as “protected neurons from excitotoxic cell death”. For `CC12CC3CC(C)(C1)CC(N)(C3)C2` [memantine, 1-amino-3,5-dimethyladmantane hydrochloride, reference compound], the “protection of neurons” value in assay [2] is reported as “prevented”. Consider `CC(C)C[C@@H](NC(=O)[C@@H](Cc1ccc(O)cc1)NC(=O)[C@H](N)CCCNC(=N)N)C(=O)N[C@H](Cc1ccccc1)C(=O)N[C@H](CCCNC(=N)N)C(=O)N[C@H](CCCNC(=N)N)C(N)=O` [rylfrr] (H-[dR][dY][dL][dF][dR][dR]-NH2), for which the IC50 in assay [1] worked out at 27 ± 4 µM. For “H-RRRRWW-NH2 (C-terminus assumed) [RRRRWW]”, in assay [1], the IC50 was found to be 0.1 µM, the “current blockade at a steady concentration compared with the same concentration of memantine (FIG. 2)” value is recorded as “comparable”, the “potency rank as NMDA blocker (FIG. 1)” value is “most potent” and the “selectivity for NMDA receptor channels” value was “selective for NMDA receptor channels”. Besides, in assay [2], the “protection of neurons” value is “prevented neuronal cell death”. The “blockade effect on non-NMDA glutamate receptors” value in assay [3] is on record as “no blockade effect”. Consider RRCRWW, for which, in assay [1], the “selectivity for NMDA receptor channels” value was “selective for NMDA receptor channels”. Also, the “protection of neurons” value in assay [2] is on record as “prevented neuronal cell death”. The “blockade effect on non-NMDA glutamate receptors” value in assay [3] is “no blockade effect”. With RRRCRW, the “potency rank as NMDA blocker (FIG. 1)” value in assay [1] was “most potent”. With RRRCWW, the “sensitivity of AMPA receptor channels to the peptides (FIG. 1)” value in assay [3] (set result: weakly sensitive) is reported as “excepting”. Turning to RRRRRW, in assay [1], the “current blockade at a steady concentration compared with the same concentration of memantine (FIG. 2)” value is “comparable”, the “potency rank as NMDA blocker (FIG. 1)” value is recorded as “most potent” and the “selectivity for NMDA receptor channels” value is reported as “selective for NMDA receptor channels”. In assay [1] (200 μM L-glutamate/20 μM glycine), the “effect on evoked inward currents upon perfusion (FIG. 5)” value is listed as “sharply attenuated”. The “increase of blockade efficacy by a C-terminal tryptophan (Ki RRRRRR vs RRRRRW)” value in assay [1] (compared with RRRRRR (#111)) was found to be 1000 fold. Besides, in assay [2], the “protection of neurons” value is “prevented neuronal cell death; also recorded: protected neurons from excitotoxic cell death”. Besides, the “blockade effect on non-NMDA glutamate receptors” value in assay [3] is recorded as “no blockade effect”. As for RRRRW, the “protection of neurons” value in assay [2] was “protected neurons from excitotoxic cell death”.
